Measurements: ChEMBL document CHEMBL3856183, “Structure-activity relationships of 3-O-β-chacotriosyl oleanane-type triterpenoids as potential H5N1 entry inhibitors” (Eur J Med Chem, 2016)

What was measured:
[1] = Selectivity index, ratio of CC50 for MDCK cells to IC50 for Influenza A virus H5 subtype (A/Thailand/Kan353/2004(H5N1)) pseudovirus infected in MDCK cells co-infected with HA/HIV; type: functional
[2] = Cytotoxicity against MDCK cells assessed as cell death after 2 days by MTT assay; type: toxicity, cell-based, Canis lupus familiaris; settings: dog
cells = settings: Influenza A virus, MDCK
[3] = system: Influenza A virus (A/Vietnam/1194/2004(H5N1)); assay: (§1) Binding affinity to influenza A virus A/Vietnam/1194/2004(H5N1) Hemagglutinin 2 subunit by surface plasmon resonance analysis
[4] = as §1
[5] = system: Influenza A virus (A/Vietnam/1194/2004(H5N1)); assay: (§2) Binding affinity to Influenza A virus A/Vietnam/1194/2004(H5N1) Hemagglutinin by surface plasmon resonance analysis
[6] = as §2

| Compound | Ratio CC50/IC50 [1] | CC50 at 48 h [2] [µM] | IC50 (cells) [µM] | Activity [3] | Kd [4] [nM] | Activity [5] | Kd [6] [nM] |
| --- | --- | --- | --- | --- | --- | --- | --- |
| O=C(NCCN1CCCCC1)c1cc(F)cc(C(F)(F)F)c1 | 332.3 |  |  |  |  |  |  |
| CCCCCOC(=O)[C@]12CCC(C)(C)C[C@H]1C1=CC[C@@H]3[C@@]4(C)CC[C@H](O[C@@H]5O[C@H](CO)[C@@H](O[C@@H]6O[C@@H](C)[C@H](O)[C@@H](O)[C@H]6O)[C@H](O)[C@H]5O[C@@H]5O[C@@H](C)[C@H](O)[C@@H](O)[C@H]5O)C(C)(C)[C@@H]4CC[C@@]3(C)[C@]1(C)CC2 | 6.9 | 45.2 | 6.52 |  |  |  |  |
| CCN(CC)C(=O)[C@]12CCC(C)(C)C[C@H]1C1=CC[C@@H]3[C@@]4(C)CC[C@H](O[C@@H]5O[C@H](CO)[C@@H](O[C@@H]6O[C@@H](C)[C@H](O)[C@@H](O)[C@H]6O)[C@H](O)[C@H]5O[C@@H]5O[C@@H](C)[C@H](O)[C@@H](O)[C@H]5O)C(C)(C)[C@@H]4CC[C@@]3(C)[C@]1(C)CC2 | 27.8 | 69 | 2.48 |  |  |  |  |
| C[C@@H]1O[C@@H](O[C@H]2[C@H](O[C@H]3CC[C@]4(C)[C@H]5CC=C6[C@@H]7CC(C)(C)CC[C@]7(C=O)CC[C@@]6(C)[C@]5(C)CC[C@H]4C3(C)C)O[C@H](CO)[C@@H](O[C@@H]3O[C@@H](C)[C@H](O)[C@@H](O)[C@H]3O)[C@@H]2O)[C@H](O)[C@H](O)[C@H]1O | 2.5 | 21.1 | 8.58 |  |  |  |  |
| CC1(C)CC[C@]2(C(=O)O)CC[C@]3(C)C(=CC[C@@H]4[C@@]5(C)CC[C@H](O)C(C)(C)[C@@H]5CC[C@]43C)[C@@H]2C1 [OLEANOLIC_ACID] | <1 | 23.1 | > 50 |  |  |  |  |
| COC(=O)[C@]12CCC(C)(C)C[C@H]1C1=CC[C@@H]3[C@@]4(C)CC[C@H](O[C@@H]5O[C@H](CO)[C@@H](O[C@@H]6O[C@@H](C)[C@H](O)[C@@H](O)[C@H]6O)[C@H](O)[C@H]5O[C@@H]5O[C@@H](C)[C@H](O)[C@@H](O)[C@H]5O)C(C)(C)[C@@H]4CC[C@@]3(C)[C@]1(C)CC2 | 3.6 |  | 4.74 |  |  |  |  |
| COC[C@]12CCC(C)(C)C[C@H]1C1=CC[C@@H]3[C@@]4(C)CC[C@H](O[C@@H]5O[C@H](CO)[C@@H](O[C@@H]6O[C@@H](C)[C@H](O)[C@@H](O)[C@H]6O)[C@H](O)[C@H]5O[C@@H]5O[C@@H](C)[C@H](O)[C@@H](O)[C@H]5O)C(C)(C)[C@@H]4CC[C@@]3(C)[C@]1(C)CC2 | <1 | 16.8 | > 20 |  |  |  |  |
| COC(=O)[C@]12CCC(C)(C)C[C@H]1C1=CC[C@@H]3[C@@]4(C)CC[C@@H](O[C@@H]5O[C@H](CO)[C@@H](O[C@@H]6O[C@@H](C)[C@H](O)[C@@H](O)[C@H]6O)[C@H](O)[C@H]5O[C@@H]5O[C@@H](C)[C@H](O)[C@@H](O)[C@H]5O)C(C)(C)[C@@H]4CC[C@@]3(C)[C@]1(C)CC2 | >38 | > 200 | 5.26 |  |  |  |  |
| COC(=O)[C@@]1(C)CC[C@]2(C)CC[C@]3(C)C(=CC(=O)[C@@H]4[C@@]5(C)CC[C@H](O[C@@H]6O[C@H](CO)[C@@H](O[C@@H]7O[C@@H](C)[C@H](O)[C@@H](O)[C@H]7O)[C@H](O)[C@H]6O[C@@H]6O[C@@H](C)[C@H](O)[C@@H](O)[C@H]6O)C(C)(C)[C@@H]5CC[C@]43C)[C@@H]2C1 | 8.3 | 33.8 | 4.1 |  |  |  |  |
| C[C@@H]1O[C@@H](O[C@H]2[C@H](O[C@H]3CC[C@]4(C)[C@H]5CC=C6[C@@H]7CC(C)(C)CC[C@]7(C(=O)OCc7ccccc7)CC[C@@]6(C)[C@]5(C)CC[C@H]4C3(C)C)O[C@H](CO)[C@@H](O[C@@H]3O[C@@H](C)[C@H](O)[C@@H](O)[C@H]3O)[C@@H]2O)[C@H](O)[C@H](O)[C@H]1O | 13.4 | 75.4 | 5.62 |  |  |  |  |
| COC(=O)[C@]12CCC(C)(C)C[C@H]1C1=CC(=O)[C@@H]3[C@@]4(C)CC[C@H](O[C@@H]5O[C@H](CO)[C@@H](O[C@@H]6O[C@@H](C)[C@H](O)[C@@H](O)[C@H]6O)[C@H](O)[C@H]5O[C@@H]5O[C@@H](C)[C@H](O)[C@@H](O)[C@H]5O)C(C)(C)[C@@H]4CC[C@@]3(C)[C@]1(C)CC2 | 3.1 | 17.9 | 5.8 |  |  |  |  |
| C[C@@H]1O[C@@H](O[C@H]2[C@H](O[C@H]3CC[C@]4(C)[C@H]5CC=C6[C@@H]7CC(C)(C)CC[C@]7(C(=O)N(C)C)CC[C@@]6(C)[C@]5(C)CC[C@H]4C3(C)C)O[C@H](CO)[C@@H](O[C@@H]3O[C@@H](C)[C@H](O)[C@@H](O)[C@H]3O)[C@@H]2O)[C@H](O)[C@H](O)[C@H]1O | 29.7 | 70 | 2.36 | Dose-dependent effect | 11.2 | Dose-dependent effect | 4.46 |
| C[C@@H]1O[C@@H](O[C@H]2[C@H](O[C@H]3CC[C@]4(C)[C@H]5CC=C6[C@@H]7CC(C)(C)CC[C@]7(C(=O)OC7CCCC7)CC[C@@]6(C)[C@]5(C)CC[C@H]4C3(C)C)O[C@H](CO)[C@@H](O[C@@H]3O[C@@H](C)[C@H](O)[C@@H](O)[C@H]3O)[C@@H]2O)[C@H](O)[C@H](O)[C@H]1O | 12.1 | 58.2 | 4.8 |  |  |  |  |
| C[C@@H]1O[C@@H](O[C@H]2[C@H](O[C@H]3CC[C@]4(C)[C@H]5CC=C6[C@@H]7CC(C)(C)CC[C@]7(C(=O)O)CC[C@@]6(C)[C@]5(C)CC[C@H]4C3(C)C)O[C@H](CO)[C@@H](O[C@@H]3O[C@@H](C)[C@H](O)[C@@H](O)[C@H]3O)[C@@H]2O)[C@H](O)[C@H](O)[C@H]1O | 2 | 18.7 | 9.39 |  |  |  |  |
| CCOC(=O)[C@]12CCC(C)(C)C[C@H]1C1=CC[C@@H]3[C@@]4(C)CC[C@H](O[C@@H]5O[C@H](CO)[C@@H](O[C@@H]6O[C@@H](C)[C@H](O)[C@@H](O)[C@H]6O)[C@H](O)[C@H]5O[C@@H]5O[C@@H](C)[C@H](O)[C@@H](O)[C@H]5O)C(C)(C)[C@@H]4CC[C@@]3(C)[C@]1(C)CC2 | 7.2 | 37.4 | 5.2 |  |  |  |  |
| C[C@@H]1CC[C@@]2(OC1)O[C@H]1C[C@H]3[C@@H]4C[C@H](O)[C@H]5C[C@@H](O[C@@H]6O[C@H](CO)[C@@H](O[C@@H]7O[C@@H](C)[C@H](O)[C@@H](O)[C@H]7O)[C@H](O)[C@H]6O[C@@H]6O[C@@H](C)[C@H](O)[C@@H](O)[C@H]6O)CC[C@]5(C)[C@H]4CC[C@]3(C)[C@H]1[C@@H]2C | 2.3 | 18.3 | 7.92 |  |  |  |  |
